Assay results from ChEMBL document CHEMBL5331121, “Preferred Conformation-Guided Discovery of Potent and Orally Active HIF Prolyl Hydroxylase 2 Inhibitors for the Treatment of Anemia” (J Med Chem, 2023).
The source made the active and inactive calls. The rule behind the calls is not given here.

What was measured:
[1] = Toxicity in ICR mouse assessed as spleen damage at 50 to 200 mg/kg, po administered every other day for 14 days; assay type: organism-based; details: in vivo, 336 h, dose 50-200 mg/kg, time 14 day
[2] = Toxicity in ICR mouse assessed as effect on food intake at 50 to 200 mg/kg, po administered every other day for 14 days; assay type: organism-based; details: in vivo, 336 h, dose 50-200 mg/kg, time 14 day
[3] = Half life in mouse at 10 mg/kg, po measured upto 24 hrs by LC-MS/MS analysis; assay type: ADME, organism-based; details: in vivo
[4] = Tmax in mouse at 10 mg/kg, po measured upto 24 hrs by LC-MS/MS analysis; assay type: ADME, organism-based; details: in vivo
[5] = Clearance in mouse at 10 mg/kg, po measured upto 24 hrs by LC-MS/MS analysis; assay type: ADME, organism-based; details: in vivo
[6] = Upregulation of EPO mRNA level in human Hep3B cells assessed as fold increase at 20 uM incubated for 12 hrs by RT-qPCR analysis; assay type: functional, Hep 3B2
[7] = Half life in Sprague-Dawley rat at 1 mg/kg, iv measured upto 24 hrs by LC-MS/MS analysis; assay type: ADME, organism-based; details: in vivo
[8] = AUC(0 to t) in Sprague-Dawley rat at 10 mg/kg, po measured upto 24 hrs by LC-MS/MS analysis; assay type: ADME, organism-based; design: time < 24 hrs, dose 10 mg/kg, route po; details: in vivo
[9] = Toxicity in ICR mouse assessed as change in kidney to body weight ratio at 50 to 200 mg/kg, po administered every other day for 14 days; assay type: organism-based; details: in vivo, 336 h, dose 50-200 mg/kg, time 14 day
[10] = AUC(0 to t) in mouse at 1 mg/kg, iv measured upto 24 hrs by LC-MS/MS analysis; assay type: ADME, organism-based; design: time < 24 hrs, dose 1 mg/kg, route iv; details: in vivo
[11] = Toxicity in ICR mouse assessed as change in lungs to body weight ratio at 50 to 200 mg/kg, po administered every other day for 14 days; assay type: organism-based; details: in vivo, 336 h, dose 50-200 mg/kg, time 14 day
[12] = Toxicity in ICR mouse assessed as animal death at 800 mg/kg, po; assay type: organism-based; details: in vivo
[13] = Hepatotoxicity in ICR mouse at 50 to 200 mg/kg, po administered every other day for 14 days; assay type: toxicity, organism-based; details: in vivo, 336 h, dose 50-200 mg/kg, time 14 day
[14] = Mean residence time (0 to infinity) in mouse at 1 mg/kg, iv measured upto 24 hrs by LC-MS/MS analysis; assay type: ADME, organism-based; details: in vivo
[15] = Clearance in Sprague-Dawley rat at 10 mg/kg, po measured upto 24 hrs by LC-MS/MS analysis; assay type: ADME, organism-based; details: in vivo
[16] = target: Egl nine homolog 1 (Homo sapiens, UniProt Q9GZT9); assay: Binding affinity to […] PHD2 (181 to 426 residues) (unknown origin) by fluorescence polarization assay
Sequence of Egl nine homolog 1 (Q9GZT9 whole entry, the tested form may be a part): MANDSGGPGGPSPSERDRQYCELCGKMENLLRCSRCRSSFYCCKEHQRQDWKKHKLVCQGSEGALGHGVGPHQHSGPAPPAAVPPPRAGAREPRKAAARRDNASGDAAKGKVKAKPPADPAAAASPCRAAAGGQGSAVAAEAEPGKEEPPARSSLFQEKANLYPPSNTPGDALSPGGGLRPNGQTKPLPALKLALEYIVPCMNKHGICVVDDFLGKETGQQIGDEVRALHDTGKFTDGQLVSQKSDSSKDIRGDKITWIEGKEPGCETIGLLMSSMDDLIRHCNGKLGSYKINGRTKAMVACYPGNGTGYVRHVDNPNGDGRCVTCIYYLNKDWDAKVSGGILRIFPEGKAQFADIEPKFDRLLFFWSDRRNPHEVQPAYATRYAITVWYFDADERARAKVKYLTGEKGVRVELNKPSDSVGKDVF

[17] = AUC(0 to t) in Sprague-Dawley rat at 1 mg/kg, iv measured upto 24 hrs by LC-MS/MS analysis; assay type: ADME, organism-based; design: dose 1 mg/kg, time < 24 hrs, route iv; details: in vivo
[18] = test system: Hep 3B2; assay: Effect on VEGFA gene expression in human Hep3B cells at 5 to 20 uM incubated for 12 hrs by RT-qPCR analysis; assay type: functional, cell-based; details: dose 5-20 µM
[19] = Apparent volume of distribution in mouse at 1 mg/kg, iv measured upto 24 hrs by LC-MS/MS analysis; assay type: ADME, organism-based; details: in vivo, read-out: Vz
[20] = Toxicity in ICR mouse assessed as liver damage at 50 to 200 mg/kg, po administered every other day for 14 days; assay type: organism-based; details: in vivo, 336 h, dose 50-200 mg/kg, time 14 day
[21] = Toxicity in ICR mouse assessed as kidney damage at 50 to 200 mg/kg, po administered every other day for 14 days; assay type: organism-based; details: in vivo, 336 h, dose 50-200 mg/kg, time 14 day
[22] = Metabolic stability in rat liver microsomes assessed as clearance at 1 uM preincubated for 5 mins followed by NADPH addition and measured upto 60 mins by LC-MS/MS analysis; assay type: ADME, Microsome; details: time < 65 min, read-out: CLH
[23] = Mean residence time (0 to infinity) in mouse at 10 mg/kg, po measured upto 24 hrs by LC-MS/MS analysis; assay type: ADME, organism-based; details: in vivo
[24] = test system: Hep 3B2; assay: Cytotoxicity against human Hep3B cells incubated for 48 hrs by CCK-8 assay; assay type: toxicity, cell-based; details: hep 3b2, 48 h
[25] = Clearance in Sprague-Dawley rat at 1 mg/kg, iv measured upto 24 hrs by LC-MS/MS analysis; assay type: ADME, organism-based; details: in vivo
[26] = Mean residence time (0 to infinity) in Sprague-Dawley rat at 10 mg/kg, po measured upto 24 hrs by LC-MS/MS analysis; assay type: ADME, organism-based; details: in vivo
[27] = Cmax in mouse at 10 mg/kg, po measured upto 24 hrs by LC-MS/MS analysis; assay type: ADME, organism-based; design: time < 24 hrs, dose 10 mg/kg, route po; details: in vivo
[28] = test system: Hep 3B2; assay: Upregulation of EPO mRNA level in human Hep3B cells incubated for 12 hrs by RT-qPCR analysis; assay type: functional, cell-based; details: dose 5-20 µM
[29] = test system: Erythrocyte; assay: Upregulation of reticulocytes in C57BL/6J mouse assessed as increase in RBC at 10 to 50 mg/kg, po administered once daily for 3 days; assay type: functional, organism-based; details: dose 10-50 mg/kg, time 3.0 day
[30] = Toxicity in ICR mouse assessed as heart damage at 50 to 200 mg/kg, po administered every other day for 14 days; assay type: organism-based; details: in vivo, 336 h, dose 50-200 mg/kg, time 14 day
[31] = Apparent volume of distribution in mouse at 10 mg/kg, po measured upto 24 hrs by LC-MS/MS analysis; assay type: ADME, organism-based; details: in vivo
[32] = AUC(0 to infinity) in Sprague-Dawley rat at 1 mg/kg, iv measured upto 24 hrs by LC-MS/MS analysis; assay type: ADME, organism-based; design: time < 24 hrs, dose 1 mg/kg, route iv; details: in vivo
[33] = AUC(0 to infinity) in Sprague-Dawley rat at 10 mg/kg, po measured upto 24 hrs by LC-MS/MS analysis; assay type: ADME, organism-based; design: dose 10 mg/kg, time < 24 hrs, route po; details: in vivo
[34] = Toxicity in ICR mouse assessed as change in spleen to body weight ratio at 50 to 200 mg/kg, po administered every other day for 14 days; assay type: organism-based; details: in vivo, 336 h, dose 50-200 mg/kg, time 14 day
[35] = Tmax in Sprague-Dawley rat at 10 mg/kg, po measured upto 24 hrs by LC-MS/MS analysis; assay type: ADME, organism-based; details: in vivo
[36] = Apparent volume of distribution in Sprague-Dawley rat at 1 mg/kg, iv measured upto 24 hrs by LC-MS/MS analysis; assay type: ADME, organism-based; details: in vivo, read-out: Vz
[37] = Oral bioavailability in mouse at 10 mg/kg measured upto 24 hrs by LC-MS/MS analysis; assay type: ADME, organism-based; details: in vivo
[38] = test system: Mus musculus; assay: Upregulation of reticulocytes in C57BL/6J mouse at 10 mg/kg, po administered once daily for 3 days; assay type: functional, organism-based; details: time 3.0 day
[39] = Toxicity in ICR mouse assessed as behavioral abnormalities at 50 to 200 mg/kg, po administered every other day for 14 days; assay type: organism-based; details: in vivo, 336 h, dose 50-200 mg/kg, time 14 day
[40] = AUC(0 to infinity) in mouse at 1 mg/kg, iv measured upto 24 hrs by LC-MS/MS analysis; assay type: ADME, organism-based; design: time < 24 hrs, dose 1 mg/kg, route iv; details: in vivo
[41] = Clearance in mouse at 1 mg/kg, iv measured upto 24 hrs by LC-MS/MS analysis; assay type: ADME, organism-based; details: in vivo
[42] = Toxicity in ICR mouse assessed as change in heart to body weight ratio at 50 to 200 mg/kg, po administered every other day for 14 days; assay type: organism-based; details: in vivo, 336 h, dose 50-200 mg/kg, time 14 day
[43] = Nephrotoxicity in ICR mouse at 50 to 200 mg/kg, po administered every other day for 14 days; assay type: toxicity, organism-based; details: in vivo, 336 h, dose 50-200 mg/kg, time 14 day
[44] = target: Endothelial PAS domain-containing protein 1 (Homo sapiens) (UniProt Q99814); assay: Induction of HIF-2alpha stabilization in human Hep3B cells at 20 to 50 uM by Western blotting analysis; assay type: cell-based; details: dose 20-50 µM
Sequence of Endothelial PAS domain-containing protein 1 (Homo sapiens) (Q99814 whole entry, the tested form may be a part): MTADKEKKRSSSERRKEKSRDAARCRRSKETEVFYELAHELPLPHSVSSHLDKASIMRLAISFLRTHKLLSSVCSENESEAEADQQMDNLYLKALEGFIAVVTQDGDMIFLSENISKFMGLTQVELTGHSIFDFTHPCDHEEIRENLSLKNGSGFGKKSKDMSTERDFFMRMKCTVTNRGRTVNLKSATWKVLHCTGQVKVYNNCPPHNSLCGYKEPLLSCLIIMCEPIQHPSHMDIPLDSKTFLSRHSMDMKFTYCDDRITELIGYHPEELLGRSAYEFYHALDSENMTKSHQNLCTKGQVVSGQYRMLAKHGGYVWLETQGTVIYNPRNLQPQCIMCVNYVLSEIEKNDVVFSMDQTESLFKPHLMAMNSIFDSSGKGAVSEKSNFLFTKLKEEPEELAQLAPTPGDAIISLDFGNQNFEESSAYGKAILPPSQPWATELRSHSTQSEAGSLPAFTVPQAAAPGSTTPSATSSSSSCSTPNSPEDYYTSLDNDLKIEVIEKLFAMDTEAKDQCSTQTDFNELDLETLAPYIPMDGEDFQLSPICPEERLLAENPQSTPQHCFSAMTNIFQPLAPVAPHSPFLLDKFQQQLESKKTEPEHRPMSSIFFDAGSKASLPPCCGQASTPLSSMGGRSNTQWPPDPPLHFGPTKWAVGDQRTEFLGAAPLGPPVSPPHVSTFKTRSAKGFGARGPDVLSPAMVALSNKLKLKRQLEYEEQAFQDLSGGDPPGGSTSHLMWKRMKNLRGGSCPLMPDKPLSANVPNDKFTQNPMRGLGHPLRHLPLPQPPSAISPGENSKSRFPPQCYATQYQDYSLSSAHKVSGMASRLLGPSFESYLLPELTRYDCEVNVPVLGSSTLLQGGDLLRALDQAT

[45] = AUC(0 to t) in mouse at 10 mg/kg, po measured upto 24 hrs by LC-MS/MS analysis; assay type: ADME, organism-based; design: dose 10 mg/kg, time < 24 hrs, route po; details: in vivo
[46] = Cmax in Sprague-Dawley rat at 10 mg/kg, po measured upto 24 hrs by LC-MS/MS analysis; assay type: ADME, organism-based; design: time < 24 hrs, dose 10 mg/kg, route po; details: in vivo
[47] = Toxicity in ICR mouse assessed as lung damage at 50 to 200 mg/kg, po administered every other day for 14 days; assay type: organism-based; details: in vivo, 336 h, dose 50-200 mg/kg, time 14 day
[48] = Apparent volume of distribution in Sprague-Dawley rat at 10 mg/kg, po measured upto 24 hrs by LC-MS/MS analysis; assay type: ADME, organism-based; details: in vivo
[49] = Mean residence time (0 to infinity) in Sprague-Dawley rat at 1 mg/kg, iv measured upto 24 hrs by LC-MS/MS analysis; assay type: ADME, organism-based; details: in vivo
[50] = Half life in mouse at 1 mg/kg, iv measured upto 24 hrs by LC-MS/MS analysis; assay type: ADME, organism-based; details: in vivo
[51] = Toxicity in ICR mouse assessed as effect on body weight at 50 to 200 mg/kg, po administered every other day for 14 days; assay type: organism-based; details: in vivo, 336 h, dose 50-200 mg/kg, time 14 day
[52] = target: Hypoxia-inducible factor 1-alpha (Homo sapiens) (UniProt Q16665); assay: Induction of HIF-1alpha stabilization in human Hep3B cells at 20 to 50 uM by Western blotting analysis; assay type: cell-based; details: dose 20-50 µM
Sequence of Hypoxia-inducible factor 1-alpha (Homo sapiens) (Q16665 whole entry, looked up): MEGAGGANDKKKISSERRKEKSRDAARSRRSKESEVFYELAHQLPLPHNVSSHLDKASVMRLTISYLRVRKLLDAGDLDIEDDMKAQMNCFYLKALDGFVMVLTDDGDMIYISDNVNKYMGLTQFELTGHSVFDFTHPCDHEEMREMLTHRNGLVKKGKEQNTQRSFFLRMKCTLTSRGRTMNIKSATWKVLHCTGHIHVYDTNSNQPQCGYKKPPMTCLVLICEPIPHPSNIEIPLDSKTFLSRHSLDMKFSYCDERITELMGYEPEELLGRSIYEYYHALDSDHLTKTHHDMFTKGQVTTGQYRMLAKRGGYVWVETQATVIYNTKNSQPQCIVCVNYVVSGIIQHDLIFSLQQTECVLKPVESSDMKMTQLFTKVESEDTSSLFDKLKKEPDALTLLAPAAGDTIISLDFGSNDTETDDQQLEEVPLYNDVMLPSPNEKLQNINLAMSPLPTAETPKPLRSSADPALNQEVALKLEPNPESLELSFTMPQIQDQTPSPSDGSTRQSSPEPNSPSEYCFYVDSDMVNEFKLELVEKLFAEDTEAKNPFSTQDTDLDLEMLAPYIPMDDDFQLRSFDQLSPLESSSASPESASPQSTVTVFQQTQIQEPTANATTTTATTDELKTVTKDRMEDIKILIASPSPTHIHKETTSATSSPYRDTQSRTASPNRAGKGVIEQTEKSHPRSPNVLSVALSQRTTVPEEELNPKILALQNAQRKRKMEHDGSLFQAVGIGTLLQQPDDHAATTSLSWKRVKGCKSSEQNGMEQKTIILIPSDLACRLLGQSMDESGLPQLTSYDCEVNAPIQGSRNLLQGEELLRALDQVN

[53] = Oral bioavailability in Sprague-Dawley rat at 10 mg/kg measured upto 24 hrs by LC-MS/MS analysis; assay type: ADME, organism-based; details: in vivo
[54] = AUC(0 to infinity) in mouse at 10 mg/kg, po measured upto 24 hrs by LC-MS/MS analysis; assay type: ADME, organism-based; design: dose 10 mg/kg, time < 24 hrs, route po; details: in vivo
[55] = Toxicity in ICR mouse assessed as change in liver to body weight ratio at 50 to 200 mg/kg, po administered every other day for 14 days; assay type: organism-based; details: in vivo, 336 h, dose 50-200 mg/kg, time 14 day

O=C(O)CNC(=O)c1ncc(C2CCN(C(=O)CNc3ccc(Cl)cc3)CC2)cc1O
Activity [1]: Non-Toxic
Activity [2]: Non-Toxic
half-life [3]: 70.2 min
Tmax [4]: 30 min
CL/F [5]: 37.4 mL/min/kg
fold change (FC) [6]: 11
half-life [7]: 223 min
AUC(0-t) at 24 h [8]: 7120 ng·h/mL
Activity [9]: Non-Toxic
AUC(0-t) at 24 h [10]: 1380 ng·h/mL
Activity [11]: Non-Toxic
Activity [12]: Non-Toxic
Activity [13]: Non-Toxic
MRT inf [14]: 31.8 min
CL/F [15]: 23.6 mL/min/kg
IC50 [16]: 0.0225 µM
AUC(0-t) at 24 h [17]: 2060 ng·h/mL
Activity [18]: inactive
Vd [19]: 0.345 L/kg
Activity [20]: Non-Toxic
Activity [21]: Non-Toxic
microsomal CLint at 1 µM [22]: 3.8 µL/min/mg
MRT inf [23]: 100 min
Activity [24]: Non-Toxic
clearance [25]: 8.05 mL/min/kg
MRT inf [26]: 33.6 min
Cmax [27]: 3040 ng/mL
Activity [28]: Dose-Dependent Effect
Activity [29]: Dose-Dependent Effect
Activity [30]: Non-Toxic
Vz [31]: 4.532 L/kg
AUC(0-inf) [32]: 2110 ng·h/mL
AUC(0-inf) [33]: 7140 ng·h/mL
Activity [34]: Non-Toxic
Tmax [35]: 4.8 min
Vd [36]: 2.64 L/kg
bioavailability [37]: 35.3%
Activity [38]: Active
Activity [39]: Non-Toxic
AUC(0-inf) [40]: 1390 ng·h/mL
clearance [41]: 12 mL/min/kg
Activity [42]: Non-Toxic
Activity [43]: Non-Toxic
Activity [44]: Active
AUC(0-t) at 24 h [45]: 4480 ng·h/mL
Cmax [46]: 26100 ng/mL
Activity [47]: Non-Toxic
Vz [48]: 4.692 L/kg
MRT inf [49]: 92.4 min
half-life [50]: 19.8 min
Activity [51]: Non-Toxic
Activity [52]: Active
bioavailability [53]: 33.9%
AUC(0-inf) [54]: 4490 ng·h/mL
Activity [55]: Non-Toxic
